Measurements reported in US8937167B2 (Washington University, priority 2009, dated 2015).
“Also recorded” adds a separate entry of the source. Read-outs that look alike come from different tables or passages of the source.

Tests used:
[1] = assay type: in vitro ADME; details: 64800 sec, […], pH 7.4
Method: Materials. The assay was carried out using Multiscreen PVDF 96-well plates (Millipore, Billerica, Mass.) using the company's Transporter Receiver Plate. The lipid (dioleyoylphosphotidylcholine (DOPC):Stearic Acid (80:20, wt %) in dodecane was obtained from Avanti Polar lipids (Alabaster, Ala.). Hank's Buffered Salt Solution (HBSS), pH 7.4 was obtained from MediaTech (Manassas, Va.).
Methods. Each of the test compounds was diluted to 2.5 mM in DMSO (Sigma, St Louis, Mo.) and further diluted prior to testing to 2.5 μM in HBSS, pH 7.4. The assay was performed using a Millipore 96-well Multiscreen-IP PAMPA plate, 5 μl of the lipid suspension was directly added to the PVDF membrane of the filter plate. Immediately following the addition of the lipid to the membrane, 200 μl of HBSS solution containing the test compound was added to the donor (upper) chamber. HBSS (300 μl) is also added to the receiver plate and the filter and receiver plates assembled and incubated overnight at room temperature in a moistened sealed bag to prevent evaporation. The concentration in the receiver plate as well as an equilibrium plate, that represents a theoretical, partition-free sample, was determined by HPLC-tandem mass spectrometry. Analysis of each compound was performed in triplicate.
Analysis. Analysis of both the acceptor and equilibrium samples were performed using an AB 3200 triple quadripole mass spectrometer linked to a Shimadzu DGU-20A HPLC with a Prevail C18 column (3 μm, 2.1×10 mm) with a flow rate of 0.35 ml/min. The mobile phase used was A: 0.1% Formic Acid in water, B: 0.1% Formic Acid in methanol. The elation gradient method is described in the table. Data acquisition and peak height determination was performed using Analyst v.1.4.2.
Calculations. The login of the effective permeability (LogPe) was calculated using the following equation
[formula] [formula] Where the drug concentration is the peak areas for the analyte and VD and VA is the volume of the donor and acceptor compartment respectively. The area is the surface area of the PVDF membrane (0.11 cm^2) and time is the incubation in seconds (64,800 sec). Each value is the mean of triplicates performed on the same day.

FimH = FimH (Escherichia coli, UniProt Q1R2J4); details: Examples 30-36 numbering;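 also: hemagglutination inhibition of guinea pig erythrocytes agglutinated by type 1 piliated uropathogenic E. coli via FimH mannose binding, quantified through serial dilutions of compound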
[2] = Mouse urine pharmacokinetics of mannosides (LC-MS); details: in vivo
Method: Pharmacokinetic (PK) studies with ZFH-2056 evaluated in vivo dosing conditions after intraperitoneal (IP) injection or oral (PO) gavage. ZFH-2056 was dosed IP and compound levels in the urine were evaluated at several timepoints by HPLC using mass spectrometry (MS) detection. […] Since oral dosing is the desired route of delivery, we next evaluated the concentration of drug after 100 mg/kg PO of ZFH-2056.
Pharamacokinetic analysis. For intraperitoneal dosing, 50 μl of a 2 mg/ml (5 mg/kg) or 4 mg/ml (10 mg/kg) solution of ZFH-2056 in PBS was injected into the peritoneal cavity of the mouse. For oral dosing, 100 μl of a 20 mg/ml (100 mg/kg) solution of ZFH-2056 in 8% DMSO was inoculated with a gavage needle into the mouse stomach. Urine was collected at 30 min, 1, 2, 3, 4, 6, and 8 h post-treatment. An equal volume of 10 μM internal standard (ZFH-2050) was added to the urine. Mannosides were extracted from the urine by loading on C18 columns (100 mg, Waters), washing with 30% methanol, and eluting with 60% methanol. […] Absolute quantification was achieved by comparison to a calibration curve.
For oral dosing, 100 μl of a 20 mg/ml (100 mg/kg) solution of ZFH-2056 in 8% DMSO was inoculated with a gavage needle into the mouse stomach. Urine was collected at 30 min, 1, 2, 3, 4, 6, and 8 h post-treatment. An equal volume of 10 μM internal standard (ZFH-2050) was added to the urine. Mannosides were extracted from the urine by loading on C18 columns (100 mg, Waters), washing with 30% methanol, and eluting with 60% methanol. […] Absolute quantification was achieved by comparison to a calibration curve.

UTI89 = experiment: Enumeration of bladder IBCs by LacZ staining in infected mice; assay type: in vivo, E. coli (UPEC); host C3H/HeN mouse; details: UTI89 pre-incubated with mannoside (as little as 10 μM); 6 hpi
Method: After invasion, UPEC are able to rapidly replicate to form IBCs, thus dramatically expanding in numbers. After maturation of the IBC, bacteria are able to disperse from the biomass and spread to neighboring cells to expand the buildup in bacterial numbers via next generation IBC. The ability of mannosides to block IBC formation was evaluated based on LacZ staining of whole mount bladders, a protocol developed to enumerate IBCs. Whole bladder titers were also determined by quantifying colony forming units (CFUs) at 6 hours post-infection and later time points as test compounds were further developed.
Enumeration of bladder IBCs. For bacterial pretreatment experiments, mannoside was added to the bacterial suspension and incubated for 20 min. For animal pretreatment experiments, mannoside ZFH-2056 was administered either IP (5 mg/kg) or orally (100 mg/kg) 30 min prior to inoculation with UTI89. To accurately count the number of IBCs, mice were sacrificed 6 hpi and bladders were aseptically removed, bisected, splayed on silicone plates and fixed in 2% paraformaldehyde (v/v). IBCs, readily discernable as punctate violet spots, were quantified by LacZ staining of whole bladders.
For animal pretreatment experiments, mannoside ZFH-2056 was administered either IP (5 mg/kg) or orally (100 mg/kg) 30 min prior to inoculation with UTI89. To accurately count the number of IBCs, mice were sacrificed 6 hpi and bladders were aseptically removed, bisected, splayed on silicone plates and fixed in 2% paraformaldehyde (v/v). IBCs, readily discernable as punctate violet spots, were quantified by LacZ staining of whole bladders.

PBC-1 [3] = experiment: Growth curve / MIC determination in LB; assay type: cell-based, E. coli (UPEC); details: 100 μM mannoside, varying TMP-SMZ
Method: Growth curve. […] Mannoside ZFH-2056 was added at 100 μM. Growth curves were performed in a 96-well plate at 37° C. with A600 readings taken every 30 min for 8 h.
Mannoside 6 was added at 100 μM. Growth curves were performed in a 96-well plate at 37° C. with A600 readings taken every 30 min for 8 h. Minimum inhibitory concentration (MIC) was calculated as the lowest concentration of antibiotic that prevented growth of the bacterial strain.

PBC-1 [4] = experiment: Mouse bladder infection with TMP-SMZ resistant strain, with or without TMP-SMZ in drinking water; assay type: in vivo, E. coli (UPEC); host C3H/HeN mouse; details: 6 hpi, mannoside IP 30 min prior and/or TMP-SMZ 3 days in drinking water

| SMILES | PAMPA (LogPe) [1] | HAI Titer EC>90 (FimH; Table 17) | HAI Titer EC>90 (FimH; Table 20) | drug cleared to the urine intact / unchanged [2] | hydrolysis products (D-mannose and phenol) in urine [2] | level in urine ([2]; ip) | IBC formation (UTI89) | effect on efficacy of TMP-SMZ killing in vitro (PBC-1 [3]) | bladder bacterial CFUs (PBC-1 [4]) |
| --- | --- | --- | --- | --- | --- | --- | --- | --- | --- |
| COC(=O)c1cccc(-c2ccc(O[C@H]3O[C@H](CO)[C@@H](O)[C@H](O)[C@@H]3O)cc2)c1 [Compound 1, phenyl mannoside, reference compound] | −5.42 | 1.00 µM | 1.000 µM | – | – | – | – | – | – |
| CNC(=O)c1cc(C(=O)NC)cc(-c2ccc(O[C@H]3O[C@H](CO)[C@@H](O)[C@H](O)[C@@H]3O)cc2)c1 [ZFH-2056] | – | – | – | > 95% | < 5% | ≤ 740 nM | most significant reduction in IBCs; also recorded: reduced IBC formation | not found to increase the efficacy of TMP-SMZ killing | significant drop in bacterial load |
